Test: Pharmacokinetics in cynomolgus monkeys
Settings: cynomolgus monkey, in vivo, sc, 25 nmol/kg
Procedure: After subcutaneous or intravenous administration to cynomolgus monkeys, plasma is collected and the drug concentration in plasma is determined to illustrate the in vivo pharmacokinetic properties of the compound according to the present invention. The compound is dissolved in 1.4% PG in 8 mM Na2HPO4 Buffer (pH 7.39), and filtered through a filter membrane (PTFE, 0.45 μm) to obtain 25 and 12.5 nmol/mL solution of the compound respectively. The obtained solutions are administered to cynomolgus monkeys (4-8 kg) at a dose of 25 nmol/kg subcutaneously (s.c.) or 12.5 nmol/kg intravenously (i.v.). […] The blood samples are centrifuged at 2200 g for 10 minutes to obtain a plasma, which is stored at −90° C. to −60° C. for further analysis and assay.
70.0 μL of thawed plasma sample is taken. 70 μL of acetonitrile (containing 1 ng/ml of the internal standard) is added to precipitate protein. The mixture is vortexed for 1 minute, and centrifuged at 14000 rpm for 10 minutes. 60.0 μL of the supernatant is taken, into which 60.0 μL of 0.5% aqueous formic acid solution is added. The mixture is vortexed for 5 minutes. 10 μL of the mixture solution is sampled and injected into the LC-MS/MS to determine the drug concentration in plasma.
Based on the drug concentration in plasma of the compounds in the cynomolgus monkeys, the pharmacokinetic parameters are calculated by applying the software Winnolin 8.2 in a non-compartmental model, and the results are shown in Table 9 and Table 10 below.

| Compound | MRT inf [h] | MRT last [h] |
| --- | --- | --- |
| CC[C@H](C)[C@H](NC(=O)C(C)(C)NC(=O)[C@H](Cc1ccc(O)cc1)NC(=O)[C@H](CC(=O)O)NC(=O)[C@H](CO)NC(=O)[C@@H](NC(=O)C(C)(Cc1ccccc1)NC(=O)[C@@H](NC(=O)CNC(=O)[C@H](CCC(=O)O)NC(=O)C(C)(C)NC(=O)[C@@H](N)Cc1ccc(O)cc1)[C@@H](C)O)[C@@H](C)O)C(=O)NC(C)(C)C(=O)N[C@@H](CC(C)C)C(=O)N[C@@H](CC(=O)O)C(=O)N[C@@H](CCCCN)C(=O)N[C@@H](CCC(N)=O)C(=O)N[C@@H](C)C(=O)N[C@@H](CCC(N)=O)C(=O)N[C@@H](C)C(=O)N[C@@H](CCC(=O)O)C(=O)N[C@@H](Cc1ccccc1)C(=O)N[C@H](C(=O)N[C@@H](CCCCN)C(=O)N[C@@H](Cc1c[nH]c2ccccc12)C(=O)N[C@@H](CC(C)C)C(=O)N[C@@H](CC(C)C)C(=O)N[C@@H](CCCCNC(=O)COCCOCCNC(=O)COCCOCCNC(=O)CC[C@H](NC(=O)CCCCCCCCCCCCCCCCCCCCC(=O)O)C(=O)O)C(=O)NCC(=O)NCC(=O)N1CCC[C@H]1C(=O)N[C@@H](CO)C(=O)N[C@@H](CO)C(=O)NCC(=O)N[C@@H](C)C(=O)N1CCC[C@H]1C(=O)N1CCC[C@H]1C(=O)N1CCC[C@H]1C(=O)N[C@@H](CO)C(=O)N[C@@H](CCCCN)C(N)=O)C(C)C (some centres unmarked) [P017] | 77.8 ± 12.2 | 76.4 ± 12.7 |

Test: Pharmacokinetics following single administration in SD rat
Design: species or system SD rats
Settings: in vivo, sc, 50 nmol/kg
Procedure: The compound is administrated to male SD rats (230-268 g, n=3) at a dose of 50.0 nmol/kg (s.c.) or 25.0 nmol/kg (i.v.). […] 30.0 μL of thawed plasma sample is taken. 150 μL of acetonitrile solution (containing 5 ng mL^−1 Verapamil, 50 ng·mL^−1 Glibenclamide, 200 ng·mL^−1 Tolbutamide and 200 ng·mL^−1 Diclofenac) are added to precipitate protein. The mixture is vortexed for 5 minutes, and centrifuged at 3700 rpm for 8 minutes. 70.0 μL of the supernatant is taken, into which 70.0 μL of 0.5% aqueous formic acid solution is added. The mixture is vortexed for 5 minutes. 15 μL of the mixture solution is sampled and injected into the LC-MS/MS to determine the drug concentration in plasma. 20.0 μL of thawed plasma sample is taken. 60 μL of acetonitrile solution (containing 5 ng mL^−1 Verapamil, 50 ng·mL^−1 Glibenclamide, 200 ng·mL^−1 Tolbutamide and 200 ng·mL^−1 Diclofenac) are added to precipitate protein. […] The mixture is vortexed for 10 minutes. 10.0 μL of the mixture solution is sampled and injected into the LC-MS/MS to determine the drug concentration in plasma. 30.0 μL of thawed plasma sample is taken. 150 μL of acetonitrile solution (containing 5 ng mL^−1 Verapamil, 50 ng mL^−1 Glibenclamide, 200 ng·mL^−1 Tolbutamide and 200 ng·mL^−1 Diclofenac) are added to precipitate protein. The mixture is vortexed for 5 minutes, and centrifuged at 3700 rpm for 8 minutes. 70.0 μL of the supernatant is taken, into which 70.0 μL of 0.5% aqueous formic acid solution is added. The mixture is vortexed for 5 minutes. 10.0 μL of the mixture solution is sampled and injected into the LC-MS/MS to determine the drug concentration in plasma.

| Compound | MRT inf [h] | MRT last [h] |
| --- | --- | --- |
| CC[C@H](C)[C@H](NC(=O)C(C)(C)NC(=O)[C@H](Cc1ccc(O)cc1)NC(=O)[C@H](CC(=O)O)NC(=O)[C@H](CO)NC(=O)[C@@H](NC(=O)C(C)(Cc1ccccc1)NC(=O)[C@@H](NC(=O)CNC(=O)[C@H](CCC(=O)O)NC(=O)C(C)(C)NC(=O)[C@@H](N)Cc1ccc(O)cc1)[C@@H](C)O)[C@@H](C)O)C(=O)NC(C)(C)C(=O)N[C@@H](CC(C)C)C(=O)N[C@@H](CC(=O)O)C(=O)N[C@@H](CCCCN)C(=O)N[C@@H](CCC(N)=O)C(=O)N[C@@H](C)C(=O)N[C@@H](CCC(N)=O)C(=O)N[C@@H](C)C(=O)N[C@@H](CCC(=O)O)C(=O)N[C@@H](Cc1ccccc1)C(=O)N[C@H](C(=O)N[C@@H](CCCCNC(=O)COCCOCCNC(=O)COCCOCCNC(=O)CC[C@H](NC(=O)CCCCCCCCCCCCCCCCC(=O)O)C(=O)O)C(=O)N[C@@H](Cc1c[nH]c2ccccc12)C(=O)N[C@@H](CC(C)C)C(=O)N[C@@H](CC(C)C)C(=O)N[C@@H](CCCCN)C(=O)NCC(=O)NCC(=O)N1CCC[C@H]1C(=O)N[C@@H](CO)C(=O)N[C@@H](CO)C(=O)NCC(=O)N[C@@H](C)C(=O)N1CCC[C@H]1C(=O)N1CCC[C@H]1C(=O)N1CCC[C@H]1C(=O)N[C@@H](CO)C(=O)N[C@@H](CCCCN)C(N)=O)C(C)C (some centres unmarked) [P007] | 25.7 ± 1.69 | 21.4 ± 1.87 |
| CC[C@H](C)[C@H](NC(=O)C(C)(C)NC(=O)[C@H](Cc1ccc(O)cc1)NC(=O)[C@H](CC(=O)O)NC(=O)[C@H](CO)NC(=O)[C@@H](NC(=O)C(C)(Cc1ccccc1)NC(=O)[C@@H](NC(=O)CNC(=O)[C@H](CCC(=O)O)NC(=O)C(C)(C)NC(=O)[C@@H](N)Cc1ccc(O)cc1)[C@@H](C)O)[C@@H](C)O)C(=O)NC(C)(C)C(=O)N[C@@H](CC(C)C)C(=O)N[C@@H](CC(=O)O)C(=O)N[C@@H](CCCCN)C(=O)N[C@@H](CCC(N)=O)C(=O)N[C@@H](C)C(=O)N[C@@H](CCC(N)=O)C(=O)N[C@@H](C)C(=O)N[C@@H](CCC(=O)O)C(=O)N[C@@H](Cc1ccccc1)C(=O)N[C@H](C(=O)N[C@@H](CCCCN)C(=O)N[C@@H](Cc1c[nH]c2ccccc12)C(=O)N[C@@H](CC(C)C)C(=O)N[C@@H](CC(C)C)C(=O)N[C@@H](CCCCNC(=O)COCCOCCNC(=O)COCCOCCNC(=O)CC[C@H](NC(=O)CCCCCCCCCCCCCCCCC(=O)O)C(=O)O)C(=O)NCC(=O)NCC(=O)N1CCC[C@H]1C(=O)N[C@@H](CO)C(=O)N[C@@H](CO)C(=O)NCC(=O)N[C@@H](C)C(=O)N1CCC[C@H]1C(=O)N1CCC[C@H]1C(=O)N1CCC[C@H]1C(=O)N[C@@H](CO)C(=O)N[C@@H](CCCCN)C(N)=O)C(C)C (some centres unmarked) [P008] | 25.4 | 21 ± 1.85 |
| CC[C@H](C)[C@H](NC(=O)C(C)(C)NC(=O)[C@H](Cc1ccc(O)cc1)NC(=O)[C@H](CC(=O)O)NC(=O)[C@H](CO)NC(=O)[C@@H](NC(=O)C(C)(Cc1ccccc1)NC(=O)[C@@H](NC(=O)CNC(=O)[C@H](CCC(=O)O)NC(=O)C(C)(C)NC(=O)[C@@H](N)Cc1ccc(O)cc1)[C@@H](C)O)[C@@H](C)O)C(=O)NC(C)(C)C(=O)N[C@@H](CC(C)C)C(=O)N[C@@H](CC(=O)O)C(=O)N[C@@H](CCCCN)C(=O)N[C@@H](CCC(N)=O)C(=O)N[C@@H](C)C(=O)N[C@@H](CCC(N)=O)C(=O)N[C@@H](C)C(=O)N[C@@H](CCC(=O)O)C(=O)N[C@@H](Cc1ccccc1)C(=O)N[C@H](C(=O)N[C@@H](CCCCNC(=O)COCCOCCNC(=O)COCCOCCNC(=O)CC[C@H](NC(=O)CCCCCCCCCCCCCCCCCCC(=O)O)C(=O)O)C(=O)N[C@@H](Cc1c[nH]c2ccccc12)C(=O)N[C@@H](CC(C)C)C(=O)N[C@@H](CC(C)C)C(=O)N[C@@H](CCCCN)C(=O)NCC(=O)NCC(=O)N1CCC[C@H]1C(=O)N[C@@H](CO)C(=O)N[C@@H](CO)C(=O)NCC(=O)N[C@@H](C)C(=O)N1CCC[C@H]1C(=O)N1CCC[C@H]1C(=O)N1CCC[C@H]1C(=O)N[C@@H](CO)C(=O)N[C@@H](CCCCN)C(N)=O)C(C)C (some centres unmarked) [P013] | 29.9 ± 1.33 | 26.2 ± 0.7 |
| CC[C@H](C)[C@H](NC(=O)C(C)(C)NC(=O)[C@H](Cc1ccc(O)cc1)NC(=O)[C@H](CC(=O)O)NC(=O)[C@H](CO)NC(=O)[C@@H](NC(=O)C(C)(Cc1ccccc1)NC(=O)[C@@H](NC(=O)CNC(=O)[C@H](CCC(=O)O)NC(=O)C(C)(C)NC(=O)[C@@H](N)Cc1ccc(O)cc1)[C@@H](C)O)[C@@H](C)O)C(=O)NC(C)(C)C(=O)N[C@@H](CC(C)C)C(=O)N[C@@H](CC(=O)O)C(=O)N[C@@H](CCCCN)C(=O)N[C@@H](CCC(N)=O)C(=O)N[C@@H](C)C(=O)N[C@@H](CCC(N)=O)C(=O)N[C@@H](C)C(=O)N[C@@H](CCC(=O)O)C(=O)N[C@@H](Cc1ccccc1)C(=O)N[C@H](C(=O)N[C@@H](CCCCN)C(=O)N[C@@H](Cc1c[nH]c2ccccc12)C(=O)N[C@@H](CC(C)C)C(=O)N[C@@H](CC(C)C)C(=O)N[C@@H](CCCCNC(=O)COCCOCCNC(=O)COCCOCCNC(=O)CC[C@H](NC(=O)CCCCCCCCCCCCCCCCCCCCC(=O)O)C(=O)O)C(=O)NCC(=O)NCC(=O)N1CCC[C@H]1C(=O)N[C@@H](CO)C(=O)N[C@@H](CO)C(=O)NCC(=O)N[C@@H](C)C(=O)N1CCC[C@H]1C(=O)N1CCC[C@H]1C(=O)N1CCC[C@H]1C(=O)N[C@@H](CO)C(=O)N[C@@H](CCCCN)C(N)=O)C(C)C (some centres unmarked) [P017] | 36.9 ± 3.46 | 27.9 ± 2.99 |
| CC[C@H](C)[C@H](NC(=O)C(C)(C)NC(=O)[C@H](Cc1ccc(O)cc1)NC(=O)[C@H](CC(=O)O)NC(=O)[C@H](CO)NC(=O)[C@@H](NC(=O)C(C)(Cc1ccccc1)NC(=O)[C@@H](NC(=O)CNC(=O)[C@H](CCC(=O)O)NC(=O)C(C)(C)NC(=O)[C@@H](N)Cc1ccc(O)cc1)[C@@H](C)O)[C@@H](C)O)C(=O)NC(C)(C)C(=O)N[C@@H](CC(C)C)C(=O)N[C@@H](CC(=O)O)C(=O)N[C@@H](CCCCN)C(=O)N[C@@H](CCC(N)=O)C(=O)N[C@@H](C)C(=O)N[C@@H](CCC(N)=O)C(=O)N[C@@H](C)C(=O)N[C@@H](CCC(=O)O)C(=O)N[C@@H](Cc1ccccc1)C(=O)N[C@H](C(=O)N[C@@H](CCCCN)C(=O)N[C@@H](Cc1c[nH]c2ccccc12)C(=O)N[C@@H](CC(C)C)C(=O)N[C@@H](CC(C)C)C(=O)N[C@@H](CCCCNC(=O)COCCOCCNC(=O)COCCOCCNC(=O)CC[C@H](NC(=O)CC[C@H](NC(=O)CC[C@H](NC(=O)CCCCCCCCCCCCCCCCC(=O)O)C(=O)O)C(=O)O)C(=O)O)C(=O)NCC(=O)NCC(=O)N1CCC[C@H]1C(=O)N[C@@H](CO)C(=O)N[C@@H](CO)C(=O)NCC(=O)N[C@@H](C)C(=O)N1CCC[C@H]1C(=O)N1CCC[C@H]1C(=O)N1CCC[C@H]1C(=O)N[C@@H](CO)C(=O)N[C@@H](CCCCN)C(N)=O)C(C)C (some centres unmarked) [P018] | 33.4 ± 7 | 28.5 ± 4.45 |
| CC[C@H](C)[C@H](NC(=O)C(C)(C)NC(=O)[C@H](Cc1ccc(O)cc1)NC(=O)[C@H](CC(=O)O)NC(=O)[C@H](CO)NC(=O)[C@@H](NC(=O)C(C)(Cc1ccccc1)NC(=O)[C@@H](NC(=O)CNC(=O)[C@H](CCC(=O)O)NC(=O)C(C)(C)NC(=O)[C@@H](N)Cc1ccc(O)cc1)[C@@H](C)O)[C@@H](C)O)C(=O)NC(C)(C)C(=O)N[C@@H](CC(C)C)C(=O)N[C@@H](CC(=O)O)C(=O)N[C@@H](CCCCN)C(=O)N[C@@H](CCC(N)=O)C(=O)N[C@@H](C)C(=O)N[C@@H](CCC(N)=O)C(=O)N[C@@H](C)C(=O)N[C@@H](CCC(=O)O)C(=O)N[C@@H](Cc1ccccc1)C(=O)N[C@H](C(=O)N[C@@H](CCCCN)C(=O)N[C@@H](Cc1c[nH]c2ccccc12)C(=O)N[C@@H](CC(C)C)C(=O)N[C@@H](CC(C)C)C(=O)N[C@@H](CCCCNC(=O)COCCOCCNC(=O)COCCOCCNC(=O)COCCOCCNC(=O)CC[C@H](NC(=O)CCCCCCCCCCCCCCCCC(=O)O)C(=O)O)C(=O)NCC(=O)NCC(=O)N1CCC[C@H]1C(=O)N[C@@H](CO)C(=O)N[C@@H](CO)C(=O)NCC(=O)N[C@@H](C)C(=O)N1CCC[C@H]1C(=O)N1CCC[C@H]1C(=O)N1CCC[C@H]1C(=O)N[C@@H](CO)C(=O)N[C@@H](CCCCN)C(N)=O)C(C)C (some centres unmarked) [P019] | 18.3 ± 2.76 | 17.1 ± 2.55 |
